Results published in US20230322724A1, “HETEROCYCLIC COMPOUNDS AS CBP/EP300 BROMODOMAIN INHIBITORS” (AURIGENE ONCOLOGY LIMITED, priority 2020, published 2023).
Like-named read-outs stand apart in the source and are kept apart here.

Tests used:
[1] = biological target: T1, recombinant BRD4 FL bromodomain (Homo sapiens, UniProt O60885); assay: BRD4 FL TR-FRET displacement assay; assay type: binding; details: for inhibition at 10 µM: read-out: % Inhibition (10 μM); for IC50: dose-response, read-out: IC50 (group A, B, C)
T1 construct: fused on or other part: 6xHis tag, inferred from detection with Mab ANTI 6HIS-XL665
Experimental: The potency of compounds to inhibit BRD4 FL enzyme was tested in a TR-FRET displacement assay using recombinant BRD4 FL bromodomain obtained In-house. The assay buffer was 50 mM HEPES (pH 7.5), 50 mM NaCl, 500 μM CHAPS. 10 nM of BRD4 FL & 300 nM of Biotinylated Acetyl histone H4 (Lys 5, 8, 12, 16) (Millipore, USA) was incubated at room temperature for 30 minutes, the reaction was initiated by adding the pre-incubated enzyme ligand mixture to the test compounds. After 30 min incubation, the reaction was stopped by the addition of stop mix containing 1 nM of Europium Streptavidin cryptate (Cisbio, USA) and 5 nM of Mab ANTI 6HIS-XL665 (Cisbio, USA) dilutes in assay buffer containing 2.4M Potassium Fluoride. Fluorescence emission of the samples at 665 and 615 nm were measured at an excitation of 340 nm and their ratio was plotted against the compound concentrations to generate dose-response curve. The percent inhibition of the test compounds is calculated using the ratio of enzyme activity controls.
Selected compounds of the present invention were screened in the above-mentioned assay procedures and IC50 values were determined by fitting the dose-response data to sigmoidal curve fitting equation using Graph pad prism software V7.

[2] = biological target: T2, recombinant CREBBP bromodomain (Homo sapiens, UniProt Q92793); assay: CBP TR-FRET displacement assay; assay type: binding; details: for IC50: dose-response, read-out: IC50 (group A, B, C); for inhibition at 10 µM: compound at 10 μM
T2 construct: recombinant CREBBP bromodomain obtained from BPS Bioscience, USA; purchased BPS Bioscience, USA
Experimental: The potency of compounds to inhibit CREBBP enzyme was tested in a TR-FRET displacement assay using recombinant CREBBP bromodomain obtained from BPS Bioscience, USA. The assay buffer was 50 mM HEPES (pH 7.5), 50 mM NaCl, 0.008% Brij 35, 0.01% BSA, 1 mM TCEP. 50 nM of CREBBP & 500 nM of Biotinylated ligand was incubated at room temperature for 30 minutes, the reaction was initiated by adding pre-incubated enzyme ligand mixture to the test compounds. After 60 min incubation, the reaction was stopped by the addition of stop mix containing 1 nM of LANCE Europium-anti-6xHis antibody (Perkin Elmer, USA) and 40 nM of Sure Light Allophycocyanin-Streptavidin (Perkin Elmer, USA). Fluorescence emission of the samples at 665 and 615 nm were measured at an excitation of 340 nm and their ratio was plotted against the compound concentrations to generate dose-response curve. The percent inhibition of the test compounds is calculated using the ratio of enzyme activity controls.
elected compounds of the present invention were screened in the above-mentioned assay procedures and IC50 values were determined by fitting the dose-response data to sigmoidal curve fitting equation using Graph pad prism software V7.

T2 sequence (Q92793 1085-1192 limits assumed): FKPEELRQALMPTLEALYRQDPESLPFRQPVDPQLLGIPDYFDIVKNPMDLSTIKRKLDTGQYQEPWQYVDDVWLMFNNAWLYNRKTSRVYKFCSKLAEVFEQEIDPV

Structure (SMILES)	inhibition at 10 µM ([1]; BRD4 FL, compound at 10 μM) [%]	IC50 [2] [nM]	IC50 ([1]; BRD4 FL) [nM]	inhibition at 10 µM [2] [%]	inhibition at 10 µM [1] [%]
COc1cc(N2CCN(C)c3ccc(S(=O)(=O)NC(C)=O)cc32)c2cc(C)c(=O)n(C)c2c1 [Example 98]	56	< 50			
Cc1cc2c(N3CCN(C)c4ccc(S(N)(=O)=O)cc43)cccc2n(C)c1=O [Example 85, 4-(1,3-dimethyl-2-oxo-1,2-dihydroquinolin-5-yl)-1-methyl-1,2,3,4-tetrahydroquinoxaline-6-sulfonamide]		51 to 100	2010 to 5000		
CNC(=O)C1CCN(c2cc3c(cc2C#N)N(c2cc(OC)cc4c2cc(C)c(=O)n4C)CCC3)CC1 [Example 181]		< 50	2010 to 5000		
COc1cc(N2CCN(C)c3ccc(S(=O)(=O)Nc4ccccc4)cc32)c2cc(C)c(=O)n(C)c2c1 [Example 102]		> 10	2010 to 5000		
COc1cc(N2CCN(C)c3cc(C4CCN(C)CC4)c(C#N)cc32)c2cc(C)c(=O)n(C)c2c1 [Example 70, 4-(7-Methoxy-1,3-dimethyl-2-oxo-1,2-dihydroquinolin-5-yl)-1-methyl-7-(1-methylpiperidin-4-yl)-1,2,3,4-tetrahydroquinoxaline-6-carbonitrile]		51 to 100	2010 to 5000		
COc1ccc(CN2CCN(c3cc(N4CCOCC4)cc4c3cc(C)c(=O)n4C)c3cnc(-c4cnn(C)c4)cc32)cc1 [Example 135]		51 to 100	2010 to 5000		
CN1CCN(c2cccc3c2ccc(=O)n3C)c2cc(C#N)c(-c3cnn(C)c3)cc21 [Example 51]			2010 to 5000	99	
CNC(=O)c1ccc(-c2cc3c(cc2F)N(c2cc(OC)cc4c2cc(C)c(=O)n4C)CCN3C)cn1 [Example 31]		< 50	2010 to 5000		
COc1cc(N2CCCc3cc(N4CCN(C(C)=O)CC4)ncc32)c2cc(C)c(=O)n(C)c2c1 [Example 166, 5-(6-(4-Acetylpiperazin-1-yl)-3,4-dihydro-1,7-naphthyridin-1(2H)-yl)-7-methoxy-1,3-dimethylquinolin-2(1H)-one]		51 to 100	2010 to 5000		
Cc1cc2c(N3CCN(C)c4cc(-c5cnn(C)c5)ncc43)cc(OC(C)C)cc2n(C)c1=O [Example 156, 7-Isopropoxy-1,3-dimethyl-5-(1-methyl-7-(1-methyl-1H-pyrazol-4-yl)-2,3-dihydropyrido[3,4-b]pyrazin-4(1H)-yl)quinolin-2(1H)-one]		51 to 100			47
CNC(=O)CN1CCN(c2cc(N3CCOCC3)cc3c2cc(C)c(=O)n3C)c2cnc(-c3cnn(C)c3)cc21 [Example 165, 2-(4-(1,3-Dimethyl-7-morpholino-2-oxo-1,2-dihydroquinolin-5-yl)-7-(1-methyl-1H-pyrazol-4-yl)-3,4-dihydropyrido[3,4-b]pyrazin-1(2H)-yl)-N-methylacetamide]	51	< 50			
CN1CCN(c2cccc3[nH]c(=O)ccc23)c2cc(C#N)c(-c3cnn(C)c3)cc21 [Example 52]	35			83	
COc1cc(N2CCN(C)c3ccc([S+](C)[O-])cc32)c2cc(C)c(=O)n(C)c2c1 (single isomer, unassigned) [Example 249]			2010 to 5000		
COc1cc(N2CCN(C)c3cc(N4CCCC(C#N)C4)ncc32)c2cc(C)c(=O)n(C)c2c1 (centres unmarked) [Example 120]	34				

Continued, in another order:

inhibition at 10 µM ([1]; BRD4 FL, compound at 10 μM) [%]	IC50 [2] [nM]	IC50 ([1]; BRD4 FL) [nM]	inhibition at 10 µM [2] [%]	Structure (SMILES)	inhibition at 10 µM [1] [%]
38	51 to 100			Cc1cc2c(N3CCN(CC(=O)O)c4cc(-c5cnn(C)c5)ncc43)cc(N3CCOCC3)cc2n(C)c1=O [Example 164, 2-(4-(1,3-Dimethyl-7-morpholino-2-oxo-1,2-dihydroquinolin-5-yl)-7-(1-methyl-1H-pyrazol-4-yl)-3,4-dihydropyrido[3,4-b]pyrazin-1(2H)-yl)acetic acid]	
	< 50	2010 to 5000		Cc1cc2c(N3CCCc4cc(-c5cnn(C)c5)c(C(F)F)cc43)nc(N3C4CCC3COC4)cc2n(C)c1=O [Example 218]	
	> 10	2010 to 5000	98	CCn1c(=O)c(C)cc2c(N3CCN(C)c4cc(-c5cnn(C)c5)c(C#N)cc43)cccc21 [Example 46]	
	< 50	2010 to 5000		COc1cc(N2CCCc3cc(-c4cnn(C)c4)ncc32)c2cc(C)c(=O)n(C)c2c1 [Example 167]	
	< 50	2010 to 5000		CC(=O)N1CCN(c2cc(N3CCOCC3)cc3c2cc(C)c(=O)n3C)c2cnc(-c3cnn(C)c3)cc21 [Example 162, 5-(1-Acetyl-7-(1-methyl-1H-pyrazol-4-yl)-2,3-dihydropyrido[3,4-b]pyrazin-4(1H)-yl)-1,3-dimethyl-7-morpholinoquinolin-2(1H)-one]	
50	51 to 100			COc1cc(N2CCN(C)c3cc(-c4cnn(C)c4)ncc32)c2cc(C)c(=O)n(C)c2c1 [Example 116, 7-Methoxy-1,3-dimethyl-5-(1-methyl-7-(1-methyl-1H-pyrazol-4-yl)-2,3-dihydropyrido[3,4-b]pyrazin-4(1H)-yl)quinolin-2(1H)-one]	
	> 10	2010 to 5000		CC1Cc2c(cc(N3CC[C@@H](O)C3)nc2N2CCCc3cc(-c4cnn(C)c4)c(C(F)F)cc32)N(C)C1=O (stereo partly drawn) [Example 243, 5-(7-(Difluoromethyl)-6-(1-methyl-1H-pyrazol-4-yl)-3,4-dihydroquinolin-1(2H)-yl)-7-((R)-3-hydroxypyrrolidin-1-yl)-1,3-dimethyl-3,4-dihydro-1,6-naphthyridin-2(1H)-one]	
43	51 to 100			CNC(=O)C1CCN(c2cc3c(cc(C)c(=O)n3C)c(N3CCN(C)c4cc(-c5cnn(C)c5)ncc43)n2)C1 (centres unmarked) [Example 205]	
41	51 to 100			Cc1cc2c(N3CCN(C)c4cc(-c5cnn(C)c5)ncc43)cc(OC3CCOC3)cc2n(C)c1=O (centres unmarked) [Example 157]	
55	> 10			Cc1cc2c(N3CCN(C)c4cc(-c5cnn(C)c5)ncc43)cc(N3CCS(=O)(=O)CC3)cc2n(C)c1=O [Example 148]	
	< 50	2010 to 5000		Cc1cc2c(N3CCCc4cc(-c5cnn(C)c5)c(C(F)F)cc43)cc(C3CCOCC3)cc2n(C)c1=O [Example 179]	
	< 50	2010 to 5000		CCOC(=O)CN1CCN(c2cc(OC)cc3c2cc(C)c(=O)n3C)c2cc(C#N)c(-c3cnn(C)c3)cc21 [Example 66, Ethyl 2-(6-cyano-4-(7-methoxy-1,3-dimethyl-2-oxo-1,2-dihydroquinolin-5-yl)-7-(1-methyl-1H-pyrazol-4-yl)-3,4-dihydroquinoxalin-1(2H)-yl)acetate]	
	51 to 100	2010 to 5000		Cc1cc2c(N3CCN(C)c4cc(-c5cnn(C)c5)ncc43)cc(OCc3ncco3)cc2n(C)c1=O [Example 159]	
49	51 to 100			Cc1cc2c(N3CCN(C)c4cc(-c5cnn(C)c5)ncc43)cc(C(C)C)cc2n(C)c1=O [Example 151, 7-Isopropyl-1,3-dimethyl-5-(1-methyl-7-(1-methyl-1H-pyrazol-4-yl)-2,3-dihydropyrido[3,4-b]pyrazin-4(1H)-yl)quinolin-2(1H)-one]	
44	< 50			CC(=O)NS(=O)(=O)c1cc2c(cc1-c1cnn(C)c1)N(C)CCN2c1cccc2c1cc(C)c(=O)n2C [Example 112]	
	< 50	2010 to 5000		Cc1cc2c(N3CCCc4cc(-c5cnn(C)c5)c(O)cc43)nc(N3CCC(O)C3)cc2n(C)c1=O (centres unmarked) [Example 245, 5-(7-Hydroxy-6-(1-methyl-1H-pyrazol-4-yl)-3,4-dihydroquinolin-1(2H)-yl)-7-(3-hydroxypyrrolidin-1-yl)-1,3-dimethyl-1,6-naphthyridin-2(1H)-one]	
		2010 to 5000		COc1cc(N2CCCc3ccc(-c4cn[nH]c4)cc32)c2cc(C)c(=O)n(C)c2c1 [Example 198, 7′-Methoxy-1′,3′-dimethyl-7-(1H-pyrazol-4-yl)-3,4-dihydro-2H-[1,5′-biquinolin]-2′(1′H)-one]	
12				Cc1cc2c(N3CCCc4cc(-c5cnn(C)c5)c(C(F)F)cc43)nc(-n3ccnc3)cc2n(C)c1=O [Example 204]	
		2010 to 5000		COc1cc(N2CCCc3ccc(NC(C)=O)cc32)c2cc(C)c(=O)n(C)c2c1 [Example 196, N-(7′-methoxy-1′,3′-dimethyl-2′-oxo-1′,2′,3,4-tetrahydro-2H-[1,5′-biquinolin]-7-yl)acetamide]	
